One data set deals with Mouse bladders. As to the kind of experiment: Systemic uptake of intravesically instilled sodium fluorescein (serum fluorescence). Type of data set: in vivo, Balb/c mice. Particulars: 0.1% DDM pretreatment 5 min, 0.1% sodium fluorescein instilled, retained 15 min. How it is done: (§1) Female Balb/c mice were used due to the ease of urethral cannulation and intravesical instillation. All animals were housed according to institutional regulations for experimental animals. Balb/c mice (20 gm body weight) were anesthetized with Isoflurane, and a 24-gauge catheter was introduced through the urethra into the bladder. The residual urine was emptied and the bladder was flushed three times with 100 μL of PBS employing a 25-gauge needle inserted into the external end of the catheter. […]
(§2) 70 μL of the solution was intravesically instilled in the bladder and retained for 15 min after which the bladder was washed 3 times with 100 μL each of PBS. […] Triplicate samples were adjusted to 2.00 mL with 0.2 M carbonate buffer (pH=9.34) and spectrophotometric emission was measured at 538 nm following excitation at 485 nm. […]
Fluorescein has been used to measure alterations in bladder permeability after bladder mucosal injury in mice [Eichel, L. et al., (2001) Urology. […] Following 3× wash of the bladder with PBS, blood was removed from the mice via cardiac puncture and the serum was analyzed for systemic distribution of intravesically instilled sodium fluorescein as described above. […]

A further data set deals with bladder tissue. Particulars: after DDM pretreatment; cited from earlier work.
The test system of data set [1] is urothelium (GAG layer, tight junctions). As to the kind of experiment: Electron Microscopy of the DDM pretreated bladder. Type of data set: in vivo.
In data set [2] the test system is murine bladders. As to the kind of experiment: Oregon Green 488 Paclitaxel uptake in bladder after intravesical instillation (fluorescence microscopy of bladder sections). Type of data set: in vivo, Balb/c mice. Particulars: DDM pretreatment 5 min; Oregon Green 488 Paclitaxel 5 μg instilled, retained 15 min. How it is done:
as §1, §2
On examination of the histological sections of the bladder that had been pretreated with PBS followed by the intravesical retention of Paclitaxel, it was observed that there were very small patchy areas of non-specifically bound drug on the luminal surface of the bladder (FIGS. 1A-1C). Most of the bladder surface was devoid of any fluorescence that indicated the absence of any entry of the drug into the bladder tissue. […]

Data set [3] relates to murine bladders. Kind of data set: FITC-LC-TAT peptide uptake in bladder after intravesical instillation (fluorescence microscopy of bladder sections). Type of data set: in vivo, Balb/c mice. Particulars: 0.1% DDM pretreatment; 5 μg FITC-LC-TAT instilled, retained 15 min. How it is done:
as §1, with “catheter. After washing, bladder pretreatment was performed employing the various test reagents as follows: the pretreatment reagent (DDM) was diluted to the desired concentration in PBS, and the bladder was quickly rinsed twice with 100 μL each of the reagent. After the rinsing steps, 100 μL of the pretreatment reagent was introduced via the catheter and retained in the bladder for 5 minutes, followed by an additional quick rinse with the pretreatment reagent. The bladder was then washed three times with 100 μL each of PBS.” for “catheter.”
as §2

On to `CCCCCCCCCCCCO[C@@H]1O[C@H](CO)[C@@H](O[C@H]2O[C@H](CO)[C@@H](O)[C@H](O)[C@H]2O)[C@H](O)[C@H]1O` [DDM, n-dodecyl-β-D-maltoside], for which the “increase in the circulating levels of fluorescein as compared to PBS pretreatment” value in the data set with Mouse bladders was 5-10 ×. Besides, the “penetration of adenovirus particles (70 nm to 100 nm) into bladder tissue” value in the data set on bladder tissue is “able to penetrate the bladder tissue”. In data set [1], the “GAG layer on the urothelium (electron microscopy)” value is “absent” and the “tight junctions along the surface (electron microscopy)” value was “Disruption of tight junctions”. The “uptake of Paclitaxel into bladder tissue (fluorescence)” value in the data set with murine bladders [2] is “significant uptake”. For the same compound, the “FITC-LC-TAT fluorescent signal in epithelial layer on luminal surface of bladder” value with murine bladders [3] was “distinct signal”.

The record behind these values is patent publication US20080076703A1, “Compositions and methods for the enhanced uptake of therapeutic agents through the bladder epithelium” (Cell Genesys, Inc., priority 2003, published 2008).
